How the values were obtained:
oat, wild [1] = assay: Test C preemergence; format: in vivo, Avena fatua
Summary of the method: (§1)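 Soil-applied (pre) and foliar (post, 1–2 leaf, 2–10 cm) sprays; surfactant-containing non-phytotoxic solvent vehicle; loam/sand substrate. Readout: visual % control at 10 d, greenhouse, versus untreated.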

soybean [2] = assay: Test C postemergence; format: in vivo, Glycine max; conditions: 10 days, 0 to 100 scale (0 no effect, 100 complete control)
Summary of the method: as §1

pigweed, palmer [3] = assay: Test C postemergence; format: in vivo, Amaranthus palmeri; conditions: 10 days, 0 to 100 scale (0 no effect, 100 complete control)
Summary of the method: as §1

ryegrass, Italian [4] = assay: Test C preemergence; format: in vivo, Lolium multiflorum
Summary of the method: as §1

galium = assay: Test C postemergence; format: in vivo, Galium aparine; conditions: 10 days, 0 to 100 scale (0 no effect, 100 complete control)
Summary of the method: as §1

blackgrass [5] = assay: Test C preemergence; format: in vivo, Alopecurus myosuroides
Summary of the method: as §1

pigweed, palmer [6] = assay: Test C preemergence; format: in vivo, Amaranthus palmeri
Summary of the method: as §1

horseweed = assay: Test C postemergence; format: in vivo, Erigeron canadensis; conditions: 10 days, 0 to 100 scale (0 no effect, 100 complete control)
Summary of the method: as §1

foxtail, giant [7] = assay: Test C preemergence; format: in vivo, Setaria faberi
Summary of the method: as §1

rice = assay: Test D flooded paddy test; format: in vivo, Oryza sativa; conditions: 250 g ai/ha, applied to paddy water, visual rating after 13 to 14 days, scale 0 to 100 (0 no effect, 100 complete control)
Summary of the method: (§2)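 Plants at the 2-leaf stage were grown in pots flooded to 3 cm, and compound was applied directly into the paddy water, with depth kept throughout. After 13–14 days in a greenhouse, injury was rated visually against untreated controls on a 0–100 scale (100 = complete control); a dash means not tested.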

corn [8] = assay: Test C preemergence; format: in vivo, Zea mays; conditions: 500 g ai/ha, preemergence; 0 to 100 scale (0 no effect, 100 complete control)
Summary of the method: as §1

barnyardgrass [9] = assay: Test D flooded paddy test; format: in vivo, Echinochloa crus-galli; conditions: 250 g ai/ha, applied to paddy water, visual rating after 13 to 14 days, scale 0 to 100 (0 no effect, 100 complete control)
Summary of the method: as §2

sedge, umbrella = assay: Test D flooded paddy test; format: in vivo, Cyperus difformis; conditions: 250 g ai/ha, applied to paddy water, visual rating after 13 to 14 days, scale 0 to 100 (0 no effect, 100 complete control)
Summary of the method: as §2

barnyardgrass [10] = assay: Test C preemergence; format: in vivo, Echinochloa crusgalli
Summary of the method: as §1

kochia [11] = assay: Test C preemergence; format: in vivo, Bassia scoparia
Summary of the method: as §1

soybean [12] = assay: Test C preemergence; format: in vivo, Glycine max
Summary of the method: as §1

blackgrass [13] = assay: Test C postemergence; format: in vivo, Alopecurus myosuroides; conditions: 10 days, 0 to 100 scale (0 no effect, 100 complete control)
Summary of the method: as §1

foxtail, giant [14] = assay: Test C postemergence; format: in vivo, Setaria faberi; conditions: 10 days, 0 to 100 scale (0 no effect, 100 complete control)
Summary of the method: as §1

wheat [15] = assay: Test C preemergence; format: in vivo, Triticum aestivum
Summary of the method: as §1

ryegrass, Italian [16] = assay: Test C postemergence; format: in vivo, Lolium multiflorum; conditions: 10 days, 0 to 100 scale (0 no effect, 100 complete control)
Summary of the method: as §1

corn [17] = assay: Test C postemergence; format: in vivo, Zea mays; conditions: 10 days, 0 to 100 scale (0 no effect, 100 complete control)
Summary of the method: as §1

barnyardgrass [18] = assay: Test C postemergence; format: in vivo, Echinochloa crusgalli; conditions: 10 days, 0 to 100 scale (0 no effect, 100 complete control)
Summary of the method: as §1

ducksalad = assay: Test D flooded paddy test; format: in vivo, Heteranthera limosa; conditions: 250 g ai/ha, applied to paddy water, visual rating after 13 to 14 days, scale 0 to 100 (0 no effect, 100 complete control)
Summary of the method: as §2

kochia [19] = assay: Test C postemergence; format: in vivo, Bassia scoparia; conditions: 10 days, 0 to 100 scale (0 no effect, 100 complete control)
Summary of the method: as §1

oat, wild [20] = assay: Test C postemergence; format: in vivo, Avena fatua; conditions: 10 days, 0 to 100 scale (0 no effect, 100 complete control)
Summary of the method: as §1

wheat [21] = assay: Test C postemergence; format: in vivo, Triticum aestivum; conditions: 10 days, 0 to 100 scale (0 no effect, 100 complete control)
Summary of the method: as §1

ragweed [22] = assay: Test C preemergence; format: in vivo, Ambrosia artemisiifolia
Summary of the method: as §1

ragweed [23] = assay: Test C postemergence; format: in vivo, Ambrosia artemisiifolia; conditions: 10 days, 0 to 100 scale (0 no effect, 100 complete control)
Summary of the method: as §1

[24] = 500 g ai/ha, preemergence, 0 to 100 scale (0 no effect, 100 complete control)
[25] = Preemergence, 125 g ai/ha, 0 to 100 scale, 0 no effect, 100 complete control

Cc1ncn(-c2cccc(C(=O)N3C[C@H](C)Oc4c(Cl)cccc43)c2)n1 [Compound 326]
Oat, Wild plant response rating (oat, wild [1]; [24]): 80 | Plant response rating, Oat, Wild (oat, wild [1]; [25]): 30 | Plant response rating, Soybean (soybean [2]; 500 g ai/ha, postemergence): 100 | Plant response rating, Soybean (soybean [2]; Postemergence, 125 g ai/ha): 100 | Plant response rating, Pigweed, Palmer (pigweed, palmer [3]; 500 g ai/ha, postemergence): 60 | Plant response rating, Pigweed, Palmer (pigweed, palmer [3]; Postemergence, 125 g ai/ha): 20 | Ryegrass, Italian plant response rating (ryegrass, Italian [4]; [24]): 100 | Plant response rating, Ryegrass, Italian (ryegrass, Italian [4]; [25]): 90 | Plant response rating, Galium (galium; 500 g ai/ha, postemergence): 100 | Plant response rating, Galium (galium; Postemergence, 125 g ai/ha): 100 | Blackgrass plant response rating (blackgrass [5]; [24]): 90 | Plant response rating, Blackgrass (blackgrass [5]; [25]): 80 | Pigweed, Palmer plant response rating (pigweed, palmer [6]; [24]): 100 | Plant response rating, Pigweed, Palmer (pigweed, palmer [6]; [25]): 60 | Plant response rating, Horseweed (horseweed; 500 g ai/ha, postemergence): 50 | Plant response rating, Horseweed (horseweed; Postemergence, 125 g ai/ha): 0 | Foxtail, Giant plant response rating (foxtail, giant [7]; [24]): 100 | Plant response rating, Foxtail, Giant (foxtail, giant [7]; [25]): 100 | Plant response rating, Rice (Flood) (rice): 0 | Corn plant response rating (corn [8]): 40 | Plant response rating, Barnyardgrass (Flood) (barnyardgrass [9]): 15 | Plant response rating, Sedge, Umbrella (Flood) (sedge, umbrella): 95 | Barnyardgrass plant response rating (barnyardgrass [10]; [24]): 90 | Plant response rating, Barnyardgrass (barnyardgrass [10]; [25]): 60 | Kochia plant response rating (kochia [11]; [24]): 90 | Plant response rating, Kochia (kochia [11]; [25]): 80 | Soybean plant response rating (soybean [12]; [24]): 80 | Plant response rating, Soybean (soybean [12]; [25]): 70 | Plant response rating, Blackgrass (blackgrass [13]; 500 g ai/ha, postemergence): 80 | Plant response rating, Blackgrass (blackgrass [13]; Postemergence, 125 g ai/ha): 80 | Plant response rating, Foxtail, Giant (foxtail, giant [14]; 500 g ai/ha, postemergence): 90 | Plant response rating, Foxtail, Giant (foxtail, giant [14]; Postemergence, 125 g ai/ha): 70 | Wheat plant response rating (wheat [15]; [24]): 80 | Plant response rating, Wheat (wheat [15]; [25]): 20 | Plant response rating, Ryegrass, Italian (ryegrass, Italian [16]; 500 g ai/ha, postemergence): 80 | Plant response rating, Ryegrass, Italian (ryegrass, Italian [16]; Postemergence, 125 g ai/ha): 40 | Plant response rating, Corn (corn [17]; 500 g ai/ha, postemergence): 80 | Plant response rating, Corn (corn [17]; Postemergence, 125 g ai/ha): 10 | Plant response rating, Barnyardgrass (barnyardgrass [18]; 500 g ai/ha, postemergence): 80 | Plant response rating, Barnyardgrass (barnyardgrass [18]; Postemergence, 125 g ai/ha): 30 | Plant response rating, Ducksalad (Flood) (ducksalad): 80 | Plant response rating, Kochia (kochia [19]; 500 g ai/ha, postemergence): 80 | Plant response rating, Kochia (kochia [19]; Postemergence, 125 g ai/ha): 80 | Plant response rating, Oat, Wild (oat, wild [20]; 500 g ai/ha, postemergence): 50 | Plant response rating, Oat, Wild (oat, wild [20]; Postemergence, 125 g ai/ha): 20 | Plant response rating, Wheat (wheat [21]; 500 g ai/ha, postemergence): 40 | Plant response rating, Wheat (wheat [21]; Postemergence, 125 g ai/ha): 20 | Ragweed plant response rating (ragweed [22]; [24]): 0 | Plant response rating, Ragweed (ragweed [22]; [25]): 0 | Plant response rating, Ragweed (ragweed [23]; 500 g ai/ha, postemergence): 60 | Plant response rating, Ragweed (ragweed [23]; Postemergence, 125 g ai/ha): 10
